Measurements from US12162918B2, “Periostin compounds for the treatment of haematological complications” (Chemotherapeutisches Forschungsinstitut Georg-Speyer-Haus, priority 2018, dated 2024).

Experiments:
stroma cells = experiment: Focused gene expression analysis of stroma cells; format: cell-based, mice; conditions: warfarin- compared to vehicle-treated stroma cells
[1] = system: Lin− hematopoietic cells on stroma cells; experiment: Cobblestone-formation and coculture assay of Lin− cells on stroma cells; format: cell-based, mice
Experimental: In the co-culture and cobblestone assays 20,000 Lin− cells were plated on stroma cells, which had been grown and expanded from vehicle- or warfarin-treated mice in medium (α-MEM medium supplemented with 20% fetal bovine serum, 1% penicillin/streptomycin, 1% L-Glutamine) containing vehicle or warfarin (2 μM). Conditioned medium was harvested from stroma from 5 mice grown in the above medium containing vehicle or warfarin for 7 days. Consequently, 100,000 Lin− cells were grown for 2-3 days in the conditioned medium and analyzed for cell counts by flow cytometry. Where indicated, the conditioned medium was concentrated using Microsep Advance Centrifugal Devices 30K Omega (Pall Life Sciences, Portsmouth, UK).
For all coculture assays hematopoietic and stroma cells were derived from the same mouse strain (C57/B16). Stroma cells were used after a maximum of two passages and when they were 70-80% confluent. Stroma cells were derived by crushing bones from mice, plating them in α-MEM medium containing 20% fetal calf serum, penicillin/strptomycin and by removing non-adherent hematopoietic cells the following day, as described (Mukherjee et al., 2008).

[2] = system: Nestin-GFP or Col2.3 kb GFP mice; experiment: Enumeration of Nestin-GFP+ MSC and Col2.3 kb GFP+ osteoblastic cells in bones; format: in vivo; conditions: warfarin 14 days
Description: 7 to 10 week old C57BL6/N (CD45.2) or SJL (CD45.1; B6.SJL-Ptprca Pepcb/BoyJ), Col1a1 2.3 kb-GFP (kind gift from D. Rowe), Nestin-GFP (Mignone et al., 2004) and periostin knockout mice (kind gift from Juerg Huelsken) were used for these experiments. NOD SCID interleukin (IL)-2 receptor γ deficient (NSG) mice were purchased from Charles River Laboratories (Sulzfeld, Germany) and bred in our facility. All animal studies were approved by the local German government (Regierungspräsidium Darmstadt) in Hessen, Germany, and by the Institutional Animal Care and Use Committee (IACUC) of Boston University.
(§1) 0.5 mg/kg/d or 0.05 mg/kg/d of warfarin, resuspended in phosphate-buffered saline was administered to mice via subcutaneously implanted osmotic minipumps (ALZET minipumps, Cupertino, CA). The osmotic minipumps were changed after 14 days (if the experiment went beyond 14 days of treatment). Sham operated (skin incision and suture) mice served as controls. Warfarin treatment continued for 10-14 days. In the xenotransplantation experiments the mice were treated with warfarin via the drinking water (or normal drinking water) at a dose of 0.72 mg/100 ml for a total of 3 days a week (Pfeilschifter et al., 2011).

human CD34+ cells = experiment: Xenotransplantation of human CD34+ cells into warfarin-treated NSG mice; format: in vivo; conditions: warfarin- vs vehicle-treated NSG mice, 6 weeks after transplantation, P=0.015
Experimental: as §1
For the xenotransplantation experiments, we intravenously injected 1.3×10^5 human CD34+ cells, obtained via magnetic separation by magnetic beads (Miltenyi Biotech, Bergisch Gladbach, Germany) from BM filters used after harvest of non-mobilized HSPC from healthy allogeneic donors, into irradiated (250 cGy) NSG mice, which had previously been treated with vehicle or warfarin for 14 days.
We assessed the complete blood count of vehicle or warfarin-treated mice using a complete blood count analyzer (Scil Vet ABC, Gurnee, IL). […] Engraftment of human cells in NSG mice was assessed using anti-human CD45 (BD Biosciences, San José, CA).

Lin− hematopoietic cells = experiment: Direct effect of warfarin on Lin− hematopoietic cells in vitro; format: cell-based, mice
Experimental: Concentrations of drugs for in vitro use were 2 μM for warfarin, 2 μg/ml for periostin, 5 μM for the AKT inhibitor MK-2206 (Selleck Chemicals, Houston, TX) and cilengitide (Selleck Chemicals, Houston, TX, Cat. No. #S7077) was used at 0.05 μM. Phosphate buffered saline served as the vehicle control.
To test the direct effect of warfarin on hematopoietic cells 100,000 Lin− cells were cultured in 2 μM vehicle or warfarin in the absence of stroma cells for a total of 7 days. For the in vitro rescue experiment with periostin stroma cells were grown in warfarin for 14 days, before vehicle or periostin were added.

HSC = experiment: Competitive, serial and limiting dilution transplantation assays of whole bone marrow; format: in vivo, mice
Experimental: SJL (CD45.1) donor mice were treated with vehicle or warfarin, euthanized and long bones were flushed, followed by RBC lysis (Life Technologies, Darmstadt, Germany). For competitive transplantation 2×10^6 total BM cells from SJL mice were co-transplanted with 1×10^6 CD45.2+ BM competitor cells into lethally irradiated (900 cGy) C57BL/6N (CD45.2+) recipient mice. For serial transplantation 2×10^6 total CD45.1+ BM cells were transplanted into lethally irradiated C57BL/6N recipient mice. Cell engraftment and chimerism were assessed by flow cytometry of peripheral blood leukocytes for CD45.1 and CD45.2 after 4, 8, 12 and 16 weeks post transplantation. In the limiting dilution experiment we treated primary CD45.1+ donor mice with vehicle or warfarin for 14 days and, consequently, transplanted 5×10^5, 12.5×10^4, 6×10^4 and 1.5×10^4 pooled BM cells into 5 CD45.2+ recipients per group adding 5×10^5 CD45.2+ supporter cells. In indicated experiments we transplanted 5,000 or 10,000 sorted CD45.1+ LKS cells from mice treated with vehicle or warfarin plus 1×10^6 CD45.2+ total BM supporter cells into CD45.2+ recipient mice.
Differences in survival were assessed by Kaplan-Meier non-parametric estimates (Log-rank test) and between groups by student's t-test. The data were presented as mean±s.d. We used L-Calc software (Stemcell Technologies, Vancouver, Canada) to calculate HSC frequency by Poisson statistics. P values≤0.05 were accepted as significant.

patients = experiment: Peripheral blood counts of patients on VKA versus control patients; format: in vivo, human
Description: For FIGS. 6C-6H: Data of patients on VKA were obtained from the French health care databases. Patients with hematological disease, inflammation or sepsis were excluded. Patients admitted to the hospital for dermatological problems without hematological disease or sepsis acted as controls.

With CC(=O)CC(c1ccccc1)c1c(O)c2ccccc2oc1=O (stereo not drawn) [warfarin] the “expression of C-X-C motif chemokine 12 (CxCl12)” value (stroma cells) was “trend towards increased expression”, the “expression of osteopontin, Runx 2, Ccl3, Angpt1, Igf1, Notch1 and Wnt7b” value (stroma cells) was “significant decreases” and the “expression of stem cell factor (SCF; Kitl)” value (stroma cells) was “unchanged”. For the same compound, the “annexin V+ dead hematopoietic cells in coculture with stroma cells” value ([1]; in the presence of warfarin vs vehicle, P=0.04) was “modest increase”, the “number of cobblestone-forming areas” value ([1]; untreated Lin− cells on previously warfarin-treated stroma, P=0.03) was “significantly decreased” and the “number of Col2.3 kb+ osteoblastic cells” value [2] was “n.s. and no reduction”. For the same compound, the “number of Nestin+ MSC” value ([2]; P=0.047) was “significant reduction”, the “engraftment of human CD45+ leukocytes” value (human CD34+ cells) was “reduced engraftment” and the “number of colonies from Lin− cells previously exposed in vitro” value (Lin− hematopoietic cells; 2 μM warfarin or vehicle for 7 days, scored day 10) was “did not yield significantly different numbers of colonies”. For the same compound, the “effect on phenotypical Lin− or LKS cells, annexin V+ dead cells, cycling or myeloid cells” value (Lin− hematopoietic cells; Lin− cells cultured in warfarin-containing media) was “no direct effect”, the “function of whole bone marrow cells in serial transplantation” value (HSC; P=0.004 after tertiary transplantation) was “impaired function” and the “function of whole bone marrow cells in competitive transplantation” value (HSC; P=0.04 after 16 weeks) was “impaired function”. The “reduction of functional HSC in limiting dilution assay” value (HSC; warfarin-treated vs control mice, P=0.0006, L-Calc) was 7.6 fold, the “absolute number of leukocytes” value (patients; 282 patients on warfarin (P=0.0007) or 89 on fluindione (P=0.029) vs 145 control patients) was “significantly decreased” and the “absolute number of monocytes” value (patients; 282 patients on warfarin (P=0.004) or 89 on fluindione (P=0.046) vs 145 control patients) was “significantly decreased”. For the same compound, the percentage of eosinophils (patients; 282 patients on warfarin vs 145 control patients, P=0.0027) was “significantly decreased”, the percentage of basophils (patients; 282 patients on warfarin vs 145 control patients, P=0.007) was “significantly decreased” and the platelets (patients; warfarin- or fluindione-treated patients) was “not reduced”.
